Test results: ChEMBL document CHEMBL3991601, “The target landscape of clinical kinase drugs” (Science, 2017)
The source made the active and inactive calls.

Experiments:
[1] = target: Guanine nucleotide-binding protein G(i) subunit alpha-2 (Homo sapiens, UniProt P04899)
[2] = target: Cyclin-dependent kinase 2 (Homo sapiens, UniProt P24941)
[3] = target: Epidermal growth factor receptor (Homo sapiens, UniProt P00533)
[4] = target: T1, Thyroid hormone receptor-associated protein 3 (Homo sapiens, UniProt Q9Y2W1)
T1 sequence (Q9Y2W1 whole entry): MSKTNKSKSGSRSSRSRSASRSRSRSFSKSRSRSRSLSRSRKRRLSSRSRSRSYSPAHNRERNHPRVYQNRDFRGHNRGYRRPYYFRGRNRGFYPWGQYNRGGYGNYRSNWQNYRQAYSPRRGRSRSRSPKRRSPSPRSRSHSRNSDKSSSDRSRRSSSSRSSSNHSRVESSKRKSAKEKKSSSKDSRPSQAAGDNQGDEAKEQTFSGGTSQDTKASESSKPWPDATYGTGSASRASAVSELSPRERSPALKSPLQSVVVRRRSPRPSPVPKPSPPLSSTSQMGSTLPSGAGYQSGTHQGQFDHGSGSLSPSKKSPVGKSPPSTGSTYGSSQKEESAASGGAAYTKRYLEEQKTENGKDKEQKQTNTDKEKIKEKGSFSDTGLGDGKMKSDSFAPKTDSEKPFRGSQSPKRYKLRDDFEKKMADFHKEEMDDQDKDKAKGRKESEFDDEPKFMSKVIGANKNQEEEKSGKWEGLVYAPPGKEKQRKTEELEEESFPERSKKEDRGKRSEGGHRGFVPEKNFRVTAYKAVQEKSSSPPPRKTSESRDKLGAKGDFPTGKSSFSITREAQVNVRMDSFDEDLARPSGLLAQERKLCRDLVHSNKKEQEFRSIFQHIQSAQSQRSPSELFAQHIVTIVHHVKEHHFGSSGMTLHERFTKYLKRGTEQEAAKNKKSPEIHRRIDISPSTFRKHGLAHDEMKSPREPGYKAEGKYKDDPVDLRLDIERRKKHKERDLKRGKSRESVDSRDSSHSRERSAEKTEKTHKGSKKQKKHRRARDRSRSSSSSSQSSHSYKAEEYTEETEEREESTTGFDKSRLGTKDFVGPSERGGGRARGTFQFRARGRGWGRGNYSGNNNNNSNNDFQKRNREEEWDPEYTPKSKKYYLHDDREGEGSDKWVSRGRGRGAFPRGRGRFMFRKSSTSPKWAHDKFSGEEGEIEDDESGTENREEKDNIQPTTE

UMP-CMP kinase = target: T2, UMP-CMP kinase (Homo sapiens, UniProt P30085)
T2 sequence (P30085 whole entry): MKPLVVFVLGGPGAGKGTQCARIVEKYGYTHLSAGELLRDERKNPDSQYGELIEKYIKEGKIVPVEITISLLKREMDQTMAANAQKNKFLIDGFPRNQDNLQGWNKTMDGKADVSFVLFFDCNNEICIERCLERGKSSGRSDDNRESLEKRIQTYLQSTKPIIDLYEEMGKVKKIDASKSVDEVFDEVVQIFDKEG

[5] = target: T3, Protein kinase C zeta type (Homo sapiens, UniProt Q05513)
T3 sequence (Q05513 whole entry): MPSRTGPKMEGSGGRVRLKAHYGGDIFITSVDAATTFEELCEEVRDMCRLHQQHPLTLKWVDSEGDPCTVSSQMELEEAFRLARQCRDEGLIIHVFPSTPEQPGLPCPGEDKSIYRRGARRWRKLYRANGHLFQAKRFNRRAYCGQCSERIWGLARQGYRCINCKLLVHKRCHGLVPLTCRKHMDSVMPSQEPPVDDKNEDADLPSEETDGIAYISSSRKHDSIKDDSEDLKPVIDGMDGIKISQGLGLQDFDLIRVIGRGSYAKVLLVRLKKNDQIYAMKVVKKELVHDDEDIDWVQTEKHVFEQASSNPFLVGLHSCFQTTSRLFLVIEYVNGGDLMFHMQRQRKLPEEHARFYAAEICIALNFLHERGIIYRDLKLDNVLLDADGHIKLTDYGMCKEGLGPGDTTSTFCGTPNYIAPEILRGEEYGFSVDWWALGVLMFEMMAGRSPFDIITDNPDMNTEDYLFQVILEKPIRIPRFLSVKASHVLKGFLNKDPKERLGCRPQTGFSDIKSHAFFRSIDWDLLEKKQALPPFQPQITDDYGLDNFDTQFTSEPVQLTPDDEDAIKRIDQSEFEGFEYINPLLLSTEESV

[6] = target: G protein-coupled receptor kinase 6 (Homo sapiens, UniProt P43250)
G protein-coupled receptor kinase 6, sequence (P43250 whole entry): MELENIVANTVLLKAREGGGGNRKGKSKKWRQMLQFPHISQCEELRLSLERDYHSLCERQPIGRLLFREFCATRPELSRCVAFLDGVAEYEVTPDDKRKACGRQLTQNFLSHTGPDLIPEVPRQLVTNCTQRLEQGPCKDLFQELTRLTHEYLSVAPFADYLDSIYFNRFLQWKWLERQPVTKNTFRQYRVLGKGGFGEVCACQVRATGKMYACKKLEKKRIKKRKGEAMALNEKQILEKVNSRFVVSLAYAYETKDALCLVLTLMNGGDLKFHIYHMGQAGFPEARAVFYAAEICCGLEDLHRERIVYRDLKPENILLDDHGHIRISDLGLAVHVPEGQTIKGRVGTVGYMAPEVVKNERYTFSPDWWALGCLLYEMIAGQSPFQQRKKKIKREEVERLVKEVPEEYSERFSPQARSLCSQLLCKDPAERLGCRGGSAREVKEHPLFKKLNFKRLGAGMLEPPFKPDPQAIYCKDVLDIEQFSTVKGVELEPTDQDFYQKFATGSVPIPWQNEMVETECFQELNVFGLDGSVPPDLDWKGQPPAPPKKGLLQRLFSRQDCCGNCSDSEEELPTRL

Myosin-10 = Myosin-10 (Homo sapiens, UniProt P35580)
Myosin-10, sequence (P35580 whole entry): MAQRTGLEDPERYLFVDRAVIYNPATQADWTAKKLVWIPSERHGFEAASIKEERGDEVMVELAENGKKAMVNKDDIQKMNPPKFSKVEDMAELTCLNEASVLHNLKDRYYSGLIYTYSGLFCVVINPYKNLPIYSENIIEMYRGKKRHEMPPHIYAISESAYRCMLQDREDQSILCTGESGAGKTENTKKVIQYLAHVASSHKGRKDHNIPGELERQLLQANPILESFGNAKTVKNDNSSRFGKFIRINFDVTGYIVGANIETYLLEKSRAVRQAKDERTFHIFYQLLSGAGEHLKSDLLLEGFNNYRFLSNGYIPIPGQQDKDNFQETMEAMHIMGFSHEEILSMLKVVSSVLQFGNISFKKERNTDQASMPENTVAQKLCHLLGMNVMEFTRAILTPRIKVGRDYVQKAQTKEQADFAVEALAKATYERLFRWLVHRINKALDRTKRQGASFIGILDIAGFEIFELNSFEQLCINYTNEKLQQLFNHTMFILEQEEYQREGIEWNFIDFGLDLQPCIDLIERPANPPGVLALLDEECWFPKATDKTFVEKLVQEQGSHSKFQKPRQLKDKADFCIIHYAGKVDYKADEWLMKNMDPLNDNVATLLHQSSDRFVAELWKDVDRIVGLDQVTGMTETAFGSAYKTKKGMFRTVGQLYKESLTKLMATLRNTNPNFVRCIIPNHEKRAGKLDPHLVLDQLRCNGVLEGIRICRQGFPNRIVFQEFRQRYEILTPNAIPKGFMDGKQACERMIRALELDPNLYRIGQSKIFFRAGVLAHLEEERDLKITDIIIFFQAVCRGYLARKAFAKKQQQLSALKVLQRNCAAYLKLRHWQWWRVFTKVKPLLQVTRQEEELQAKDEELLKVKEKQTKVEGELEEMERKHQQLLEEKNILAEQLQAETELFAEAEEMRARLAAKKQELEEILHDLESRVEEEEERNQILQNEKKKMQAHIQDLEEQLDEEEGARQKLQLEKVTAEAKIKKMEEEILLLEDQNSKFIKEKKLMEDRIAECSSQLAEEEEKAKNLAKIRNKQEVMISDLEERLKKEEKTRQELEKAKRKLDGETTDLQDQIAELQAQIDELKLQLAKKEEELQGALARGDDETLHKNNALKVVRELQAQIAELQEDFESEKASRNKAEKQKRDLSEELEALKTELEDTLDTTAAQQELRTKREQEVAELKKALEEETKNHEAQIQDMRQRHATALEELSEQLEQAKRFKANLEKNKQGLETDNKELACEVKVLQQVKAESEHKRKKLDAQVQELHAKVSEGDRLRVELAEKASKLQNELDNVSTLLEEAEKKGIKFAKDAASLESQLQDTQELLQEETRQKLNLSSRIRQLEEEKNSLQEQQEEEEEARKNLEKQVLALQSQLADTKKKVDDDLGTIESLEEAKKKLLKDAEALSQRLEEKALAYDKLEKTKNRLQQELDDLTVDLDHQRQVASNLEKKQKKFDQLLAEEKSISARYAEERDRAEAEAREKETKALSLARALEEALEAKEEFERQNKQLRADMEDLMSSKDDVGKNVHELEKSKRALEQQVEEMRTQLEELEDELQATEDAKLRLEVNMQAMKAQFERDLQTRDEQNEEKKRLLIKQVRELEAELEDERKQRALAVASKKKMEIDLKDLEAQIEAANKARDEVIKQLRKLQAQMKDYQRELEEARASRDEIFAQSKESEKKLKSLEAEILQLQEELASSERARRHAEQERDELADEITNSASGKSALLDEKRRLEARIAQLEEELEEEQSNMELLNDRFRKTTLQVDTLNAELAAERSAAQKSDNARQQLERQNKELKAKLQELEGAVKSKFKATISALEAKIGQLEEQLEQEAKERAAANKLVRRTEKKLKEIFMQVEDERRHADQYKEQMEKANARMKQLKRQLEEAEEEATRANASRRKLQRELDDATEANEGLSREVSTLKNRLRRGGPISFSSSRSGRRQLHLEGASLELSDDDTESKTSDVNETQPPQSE

[7] = target: Serine/threonine-protein kinase PLK1 (Homo sapiens, UniProt P53350)
Serine/threonine-protein kinase PLK1, sequence (P53350 whole entry): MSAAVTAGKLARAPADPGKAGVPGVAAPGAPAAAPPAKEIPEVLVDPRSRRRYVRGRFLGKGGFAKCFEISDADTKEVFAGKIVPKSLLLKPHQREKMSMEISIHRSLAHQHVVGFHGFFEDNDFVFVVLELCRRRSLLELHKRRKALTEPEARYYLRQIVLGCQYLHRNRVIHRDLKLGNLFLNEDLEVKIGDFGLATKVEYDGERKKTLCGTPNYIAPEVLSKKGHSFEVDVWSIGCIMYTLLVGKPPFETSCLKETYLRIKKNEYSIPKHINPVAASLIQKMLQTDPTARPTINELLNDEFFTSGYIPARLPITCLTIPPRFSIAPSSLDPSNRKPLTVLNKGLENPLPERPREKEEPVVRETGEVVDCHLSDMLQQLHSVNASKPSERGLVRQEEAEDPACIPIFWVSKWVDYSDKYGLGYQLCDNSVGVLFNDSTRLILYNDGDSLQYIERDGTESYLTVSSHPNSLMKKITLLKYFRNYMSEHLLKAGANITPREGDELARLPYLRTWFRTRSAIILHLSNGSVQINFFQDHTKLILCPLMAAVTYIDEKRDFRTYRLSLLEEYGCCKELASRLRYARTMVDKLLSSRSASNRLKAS
Further: in the data inactive means no Kd found up to 30 µM.

Guanine nucleotide-binding protein G(i) subunit alpha-2, sequence (P04899 whole entry): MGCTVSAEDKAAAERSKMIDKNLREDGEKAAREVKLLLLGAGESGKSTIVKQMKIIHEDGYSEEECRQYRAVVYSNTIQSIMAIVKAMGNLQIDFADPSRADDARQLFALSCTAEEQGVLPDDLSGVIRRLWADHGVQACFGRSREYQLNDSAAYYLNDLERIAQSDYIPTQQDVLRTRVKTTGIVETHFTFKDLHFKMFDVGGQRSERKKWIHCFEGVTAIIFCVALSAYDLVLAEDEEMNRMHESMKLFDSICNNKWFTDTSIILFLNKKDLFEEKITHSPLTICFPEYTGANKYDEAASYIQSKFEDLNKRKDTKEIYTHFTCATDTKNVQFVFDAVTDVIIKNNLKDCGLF
Epidermal growth factor receptor, sequence (P00533 whole entry): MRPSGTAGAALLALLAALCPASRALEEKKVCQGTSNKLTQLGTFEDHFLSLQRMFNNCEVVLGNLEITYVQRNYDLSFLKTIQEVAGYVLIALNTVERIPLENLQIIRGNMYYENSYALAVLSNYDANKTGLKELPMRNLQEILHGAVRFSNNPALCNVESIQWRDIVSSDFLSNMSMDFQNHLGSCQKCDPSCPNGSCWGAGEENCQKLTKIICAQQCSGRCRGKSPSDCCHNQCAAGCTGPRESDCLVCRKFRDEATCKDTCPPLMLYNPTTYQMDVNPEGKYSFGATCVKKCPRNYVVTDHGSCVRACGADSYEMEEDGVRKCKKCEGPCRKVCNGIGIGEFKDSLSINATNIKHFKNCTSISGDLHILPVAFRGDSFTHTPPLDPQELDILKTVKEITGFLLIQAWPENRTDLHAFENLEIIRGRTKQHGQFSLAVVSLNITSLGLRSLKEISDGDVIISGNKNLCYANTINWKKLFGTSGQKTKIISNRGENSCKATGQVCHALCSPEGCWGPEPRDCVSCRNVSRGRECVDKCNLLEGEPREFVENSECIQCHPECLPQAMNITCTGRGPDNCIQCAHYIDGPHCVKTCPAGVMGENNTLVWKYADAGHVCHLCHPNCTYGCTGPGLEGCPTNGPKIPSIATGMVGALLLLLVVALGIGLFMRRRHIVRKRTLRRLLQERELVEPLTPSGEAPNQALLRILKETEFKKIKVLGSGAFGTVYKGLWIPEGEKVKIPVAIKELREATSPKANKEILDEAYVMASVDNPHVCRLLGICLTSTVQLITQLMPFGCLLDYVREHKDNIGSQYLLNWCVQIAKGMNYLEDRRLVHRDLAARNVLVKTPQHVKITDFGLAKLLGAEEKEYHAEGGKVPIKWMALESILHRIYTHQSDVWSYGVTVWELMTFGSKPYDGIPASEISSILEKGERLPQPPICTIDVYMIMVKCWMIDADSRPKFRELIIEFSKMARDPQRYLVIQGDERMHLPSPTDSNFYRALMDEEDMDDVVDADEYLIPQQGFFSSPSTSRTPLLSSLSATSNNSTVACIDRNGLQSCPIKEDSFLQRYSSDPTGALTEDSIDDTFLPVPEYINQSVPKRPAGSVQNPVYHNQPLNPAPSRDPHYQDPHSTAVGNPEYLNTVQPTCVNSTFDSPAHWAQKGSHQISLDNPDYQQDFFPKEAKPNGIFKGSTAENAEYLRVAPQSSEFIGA

Row | SMILES | Kd [1] | Kd [2] | Kd [3] | Kd [4] | Kd (UMP-CMP kinase) | Kd [5] | Kd [6] | Kd (Myosin-10) | Kd [7]
1 | Cn1ncc(Cl)c1-c1cc(C(=O)N[C@H](CN)Cc2cccc(F)c2)sc1Cl [AFURESERTIB] | > 30 µM (inactive) | > 30 µM (inactive) | > 30 µM (inactive) | – | – | – | – | – | –
2 | CCc1cnn2c(NCc3ccc[n+]([O-])c3)cc(N3CCCC[C@H]3CCO)nc12 [DINACICLIB] | > 30 µM (inactive) | – | > 30 µM (inactive) | > 30 µM (inactive) | > 30 µM (inactive) | > 30 µM (inactive) | > 30 µM (inactive) | > 30 µM (inactive) | –
3 | C[C@@H](Nc1cc(F)cc(F)c1)c1cc(C(=O)N(C)C)cc2c(=O)cc(N3CCOCC3)oc12 [AZD-8186] | > 30 µM (inactive) | > 30 µM (inactive) | > 30 µM (inactive) | – | – | – | – | – | –
4 | CCCS(=O)(=O)Nc1ccc(F)c(C(=O)c2c[nH]c3ncc(-c4ccc(Cl)cc4)cc23)c1F [VEMURAFENIB] | > 30 µM (inactive) | > 30 µM (inactive) | – | > 30 µM (inactive) | > 30 µM (inactive) | – | > 30 µM (inactive) | > 30 µM (inactive) | > 30 µM (inactive)
5 | CNC(=O)c1ccc(C)c(-n2c(C)cc(OCc3ccc(F)cc3F)c(Br)c2=O)c1 [PH-797804] | > 30 µM (inactive) | > 30 µM (inactive) | > 30 µM (inactive) | – | – | – | – | – | –
6 | C[C@@H](c1ccc2nccn2c1)n1nnc2ncc(-c3cnn(C)c3)nc21 [SAVOLITINIB] | – | > 30 µM (inactive) | > 30 µM (inactive) | > 30 µM (inactive) | > 30 µM (inactive) | – | – | – | –
7 | CNC(=O)c1ccc(-c2cnc3ncc(Cc4ccc5ncccc5c4)n3n2)cc1F [CAPMATINIB] | > 30 µM (inactive) | > 30 µM (inactive) | > 30 µM (inactive) | – | – | > 30 µM (inactive) | – | > 30 µM (inactive) | –
8 | COc1cc(OC)c(/C=C/S(=O)(=O)Cc2ccc(OC)c(NCC(=O)O)c2)c(OC)c1 [RIGOSERTIB] | > 30 µM (inactive) | > 30 µM (inactive) | > 30 µM (inactive) | > 30 µM (inactive) | – | > 30 µM (inactive) | > 30 µM (inactive) | > 30 µM (inactive) | –
9 | C=CC(=O)N1CCC(Oc2cc3c(Nc4ccc(Cl)c(Cl)c4F)ncnc3cc2OC)CC1 [POZIOTINIB] | > 30 µM (inactive) | > 30 µM (inactive) | – | – | – | > 30 µM (inactive) | > 30 µM (inactive) | – | –
10 | Cn1cc(-c2ccc(F)c(C(F)(F)F)c2)nc1C1CCN(c2ncnc3[nH]ncc23)CC1 [LY-2584702] | > 30 µM (inactive) | > 30 µM (inactive) | > 30 µM (inactive) | > 30 µM (inactive) | > 30 µM (inactive) | – | – | – | –
11 | CC[C@H](Nc1ncnc2[nH]cnc12)c1nc2cccc(F)c2c(=O)n1-c1ccccc1 [IDELALISIB] | > 30 µM (inactive) | > 30 µM (inactive) | > 30 µM (inactive) | > 30 µM (inactive) | – | – | > 30 µM (inactive) | – | > 30 µM (inactive)
12 | Cc1cn(-c2cc(NC(=O)c3ccc(C)c(Nc4nccc(-c5cccnc5)n4)c3)cc(C(F)(F)F)c2)cn1 [NILOTINIB] | – | – | – | > 30 µM (inactive) | > 30 µM (inactive) | > 30 µM (inactive) | > 30 µM (inactive) | > 30 µM (inactive) | –
13 | CN1N=C(N)c2cn([C@@H]3O[C@H](COP(=O)(O)O)[C@@H](O)[C@H]3O)c3ncnc1c23 [TRICIRIBINE PHOSPHATE] | – | > 30 µM (inactive) | > 30 µM (inactive) | > 30 µM (inactive) | > 30 µM (inactive) | – | > 30 µM (inactive) | > 30 µM (inactive) | –
14 | CC(C)Nc1cc(-c2c[nH]c(C(=O)N[C@H](CO)c3cccc(Cl)c3)c2)c(Cl)cn1 [ULIXERTINIB] | – | > 30 µM (inactive) | > 30 µM (inactive) | – | > 30 µM (inactive) | – | – | > 30 µM (inactive) | > 30 µM (inactive)
15 | CC[C@@H]1C(=O)N(C)c2cnc(Nc3ccc(C(=O)N[C@H]4CC[C@H](N5CCN(CC6CC6)CC5)CC4)cc3OC)nc2N1C(C)C [VOLASERTIB] | > 30 µM (inactive) | > 30 µM (inactive) | > 30 µM (inactive) | > 30 µM (inactive) | > 30 µM (inactive) | – | > 30 µM (inactive) | > 30 µM (inactive) | > 30 µM (inactive)
16 | O=C(Nc1cccc(Cl)c1)Nc1ncc(CCNc2ncnc3ccsc23)s1 [SNS-314] | > 30 µM (inactive) | – | – | > 30 µM (inactive) | > 30 µM (inactive) | – | > 30 µM (inactive) | > 30 µM (inactive) | –
17 | CN1CC[C@@H](c2c(O)cc(O)c3c(=O)cc(-c4ccccc4Cl)oc23)[C@@H]1CO | – | > 30 µM (inactive) | > 30 µM (inactive) | > 30 µM (inactive) | > 30 µM (inactive) | – | > 30 µM (inactive) | – | 0.021 µM
18 | COc1cc2nccc(Oc3ccc(NC(=O)NC4CC4)c(Cl)c3)c2cc1C(N)=O [LENVATINIB] | > 30 µM (inactive) | > 30 µM (inactive) | – | > 30 µM (inactive) | > 30 µM (inactive) | – | > 30 µM (inactive) | > 30 µM (inactive) | –
19 | CCS(=O)(=O)N1CC(CC#N)(n2cc(-c3ncnc4[nH]ccc34)cn2)C1 [BARICITINIB] | > 30 µM (inactive) | > 30 µM (inactive) | > 30 µM (inactive) | > 30 µM (inactive) | > 30 µM (inactive) | – | > 30 µM (inactive) | > 30 µM (inactive) | –
20 | CCn1c(-c2nonc2N)nc2c(C#CC(C)(C)O)ncc(OC[C@H]3CCCNC3)c21 [GSK-690693] | – | – | – | > 30 µM (inactive) | > 30 µM (inactive) | > 30 µM (inactive) | – | – | –
21 | O=C(O)[C@]1(Cc2cccc(Nc3nccs3)n2)CC[C@@H](Oc2cccc(Cl)c2F)CC1 [MK-5108] | > 30 µM (inactive) | > 30 µM (inactive) | > 30 µM (inactive) | > 30 µM (inactive) | > 30 µM (inactive) | > 30 µM (inactive) | – | > 30 µM (inactive) | –
22 | C1=C/COCc2cc(ccc2OCCN2CCCC2)Nc2nccc(n2)-c2cccc(c2)COC/1 [PACRITINIB] | – | > 30 µM (inactive) | > 30 µM (inactive) | > 30 µM (inactive) | – | – | – | > 30 µM (inactive) | –
23 | N[C@@H]1CCCN(c2c(/C=C3\SC(=O)NC3=O)cccc2-c2ccccc2)C1 | > 30 µM (inactive) | > 30 µM (inactive) | > 30 µM (inactive) | – | > 30 µM (inactive) | – | – | > 30 µM (inactive) | > 30 µM (inactive)
24 | CN1CCN(c2ccc3nc(-c4c(N)c5c(F)cccc5[nH]c4=O)[nH]c3c2)CC1 [DOVITINIB] | – | – | – | – | – | > 30 µM (inactive) | > 30 µM (inactive) | > 30 µM (inactive) | –
25 | Nc1nc(N)c2nc(-c3cccc(O)c3)c(-c3cccc(O)c3)nc2n1 [TG100-115] | > 30 µM (inactive) | – | > 30 µM (inactive) | > 30 µM (inactive) | – | > 30 µM (inactive) | > 30 µM (inactive) | – | –
26 | O=C(Nc1ccc(-c2ccnc(Nc3ccc(N4CCOCC4)cc3)n2)cc1)C1CCCN1 (centres undefined) [XL-019] | > 30 µM (inactive) | – | > 30 µM (inactive) | > 30 µM (inactive) | – | > 30 µM (inactive) | – | – | > 30 µM (inactive)
27 | O=C(c1ccc(F)c(F)c1Nc1ccc(I)cc1F)N1CC(O)([C@@H]2CCCCN2)C1 [COBIMETINIB] | – | > 30 µM (inactive) | > 30 µM (inactive) | > 30 µM (inactive) | – | – | – | – | > 30 µM (inactive)
